Results on two compounds are retold here after patent US11186544B2 (BRISTOL-MYERS SQUIBB COMPANY, priority 2017, dated 2021).

Experiment [1] has as its target human FPR2 (Homo sapiens (Human), UniProt P25090). The experiment is described as follows: FPR2 cyclic adenosine monophosphate (cAMP) assay. The class given is cell-based. To be noted: CHO cells overexpressing human FPR2; inhibition of forskolin (5 μM) stimulated cAMP; read-out: hFPR2 cAMP2 EC50. Here is the method: FPR2 and FPR1 Cyclic Adenosine Monophosphate (cAMP) Assays. A mixture of forskolin (5 μM final for FPR2 or 10 μM final for FPR1) and IBMX (200 μM final) were added to 384-well Proxiplates (Perkin-Elmer) pre-dotted with test compounds in DMSO (1% final) at final concentrations in the range of 0.020 nM to 100 μM. Chinese Hamster Ovary cells (CHO) overexpressing human FPR1 or human FPR2 receptors were cultured in F-12 (Ham's) medium supplemented with 10% qualified FBS, 250 μg/ml zeocin and 300 μg/ml hygromycin (Life Technologies). Reactions were initiated by adding 2,000 human FPR2 cells per well or 4,000 human FPR1 cells per well in Dulbecco's PBS (with calcium and magnesium) (Life Technologies) supplemented with 0.1% BSA (Perkin-Elmer). The reaction mixtures were incubated for 30 min at room temperature. The level of intracellular cAMP was determined using the HTRF HiRange cAMP assay reagent kit (Cisbio) according to manufacturer's instruction. Solutions of cryptate conjugated anti-cAMP and d2 flurorophore-labelled cAMP were made in a supplied lysis buffer separately. Upon completion of the reaction, the cells were lysed with equal volume of the d2-cAMP solution and anti-cAMP solution. […] The potency and activity of a compound to inhibit cAMP production was then determined by fitting to a 4-parametric logistic equation from a plot of cAMP level versus compound concentrations.

Experiment [2] deals with human FPR1 (Homo sapiens (Human), UniProt P21462). The experiment is described as follows: FPR1 cyclic adenosine monophosphate (cAMP) assay. The class given is cell-based. To be noted: CHO cells overexpressing human FPR1; inhibition of forskolin (10 μM) stimulated cAMP; read-out: hFPR1 cAMP EC50. Here is the method:
FPR2 and FPR1 Cyclic Adenosine Monophosphate (cAMP) Assays. A mixture of forskolin (5 μM final for FPR2 or 10 μM final for FPR1) and IBMX (200 μM final) were added to 384-well Proxiplates (Perkin-Elmer) pre-dotted with test compounds in DMSO (1% final) at final concentrations in the range of 0.020 nM to 100 μM. Chinese Hamster Ovary cells (CHO) overexpressing human FPR1 or human FPR2 receptors were cultured in F-12 (Ham's) medium supplemented with 10% qualified FBS, 250 μg/ml zeocin and 300 μg/ml hygromycin (Life Technologies). Reactions were initiated by adding 2,000 human FPR2 cells per well or 4,000 human FPR1 cells per well in Dulbecco's PBS (with calcium and magnesium) (Life Technologies) supplemented with 0.1% BSA (Perkin-Elmer). The reaction mixtures were incubated for 30 min at room temperature. The level of intracellular cAMP was determined using the HTRF HiRange cAMP assay reagent kit (Cisbio) according to manufacturer's instruction. Solutions of cryptate conjugated anti-cAMP and d2 flurorophore-labelled cAMP were made in a supplied lysis buffer separately. Upon completion of the reaction, the cells were lysed with equal volume of the d2-cAMP solution and anti-cAMP solution. After a 1-h room temperature incubation, time-resolved fluorescence intensity was measured using the Envision (Perkin-Elmer) at 400 nm excitation and dual emission at 590 nm and 665 nm. A calibration curve was constructed with an external cAMP standard at concentrations ranging from 1 μM to 0.1 pM by plotting the fluorescent intensity ratio from 665 nm emission to the intensity from the 590 nm emission against cAMP concentrations. The potency and activity of a compound to inhibit cAMP production was then determined by fitting to a 4-parametric logistic equation from a plot of cAMP level versus compound concentrations.

human FPR2, sequence (P25090 whole entry): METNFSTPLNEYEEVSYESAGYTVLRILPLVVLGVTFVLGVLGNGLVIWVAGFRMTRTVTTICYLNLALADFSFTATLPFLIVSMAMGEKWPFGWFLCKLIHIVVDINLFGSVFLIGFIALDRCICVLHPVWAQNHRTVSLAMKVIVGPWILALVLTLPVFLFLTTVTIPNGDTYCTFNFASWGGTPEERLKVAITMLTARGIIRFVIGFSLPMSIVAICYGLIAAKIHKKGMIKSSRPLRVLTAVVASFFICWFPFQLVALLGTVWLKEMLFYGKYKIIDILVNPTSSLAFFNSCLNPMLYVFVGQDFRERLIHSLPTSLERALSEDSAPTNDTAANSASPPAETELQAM
human FPR1, sequence (P21462 whole entry): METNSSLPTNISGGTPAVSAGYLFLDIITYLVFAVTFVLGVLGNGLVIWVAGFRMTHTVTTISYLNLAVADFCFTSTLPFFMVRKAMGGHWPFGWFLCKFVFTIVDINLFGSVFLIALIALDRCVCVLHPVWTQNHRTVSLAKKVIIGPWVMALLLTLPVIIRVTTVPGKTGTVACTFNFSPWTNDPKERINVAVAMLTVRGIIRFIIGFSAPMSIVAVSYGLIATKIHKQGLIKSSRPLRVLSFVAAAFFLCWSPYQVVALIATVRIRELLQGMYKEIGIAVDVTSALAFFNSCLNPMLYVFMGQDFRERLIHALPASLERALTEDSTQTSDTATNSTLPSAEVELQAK

Broadly, the EC50 is the concentration at which the effect is half-maximal. `CS(=O)(=O)Nc1ccccc1-c1ccc(N2C[C@H](O)C[C@@H](NC(=O)Nc3ccc(Cl)cc3F)C2=O)cc1` [Example 277, N-(4′-((3R,5R)-3-(3-(4-chloro-2-fluorophenyl)ureido)-5-hydroxy-2-oxopiperidin-1-yl)-[1,1′-biphenyl]-2-yl)methanesulfonamide]: the values for the EC50 in experiment [1] and in experiment [2] were 0.17 nM and 8.4 nM, respectively.
The matching figures for `CS(=O)(=O)Nc1ccccc1-c1ccc(N2CCC[C@@H](NC(=O)Nc3ccc(Cl)cc3F)C2=O)c(Cl)c1` [Example 299, 1-[(3R)-1-{3-chloro-2′-methanesulfonamido-[1,1′-biphenyl]-4-yl}-2-oxopiperidin-3-yl]-3-(4-chloro-2-fluorophenyl)urea]: 5.5 nM and 130 nM.
